From US9051300B2, “Herbicides” (Syngenta Limited, priority 2009, dated 2015)

How the values were obtained:
Type in all cases: in vivo
[1] = tested on: Echinochloa crus-galli (ECHCG); assay: Pre-emergence herbicidal activity, glasshouse pot test; conditions: rate not printed (columns shifted), evaluated after 13 days, 100=total damage to plant, 0=no damage
Method: (§1) Seeds of a variety of test species are sown in standard soil in pots. After cultivation for one day (pre-emergence) or after 8 days cultivation (post-emergence) under controlled conditions in a glasshouse (at 24/16° C., day/night; 14 hours light; 65% humidity), the plants are sprayed with an aqueous spray solution derived from the formulation of the technical active ingredient in acetone/water (50:50) solution containing 0.5% Tween 20 (polyoxyethylene sorbitan monolaurate, CAS RN 9005-64-5). The test plants are then grown in a glasshouse under controlled conditions in a glasshouse (at 24/16° C., day/night; 14 hours light; 65% humidity) and watered twice daily. After 13 days for pre and post-emergence, the test is evaluated (100=total damage to plant; 0=no damage to plant). Lolium perenne (LOLPE), Alopecurus myosuroides (ALOMY), Echinochloa crus-galli (ECHCG), Avena fatua (AVEFA) Pre-Emergence Activity

Lolium perenne (LOLPE) [2] = assay: as above; conditions: rate not printed (columns shifted), evaluated after 13 days, 100=total damage to plant, 0=no damage
Method: as §1

[3] = tested on: Alopecurus myosuroides (ALOMY); assay: as above; conditions: rate not printed (columns shifted), evaluated after 13 days, 100=total damage to plant, 0=no damage
Method: as §1

Avena fatua (AVEFA) [4] = assay: as above; conditions: rate not printed (columns shifted), evaluated after 13 days, 100=total damage to plant, 0=no damage
Method: as §1

[5] = tested on: Winter Wheat variety 'Hereward'; assay: Crop damage to winter wheat seed treated with safener cloquintocet mexyl, post-emergence spray; conditions: 250 g/ha, seed treated with cloquintocet mexyl 0.5 g/kg seed, evaluated after 13 days, 100=total damage, 0=no damage
Method: Seeds of the Winter Wheat variety ‘Hereward’ were seed treated with a wettable powder formulation of the cereal herbicide safener, cloquintocet mexyl, at a rate of 0.5 grams per kilogram of dry seed prior to the initiation of glasshouse testing. One seed was sown per 1.5 inch plastic pot into a sandy loam soil at a depth of 1 cm, 8 days prior to application of the test compounds and was watered and grown under controlled conditions in a glasshouse (at 24/16° C., day/night; 14 hours light; 65% humidity). The plants were sprayed post-emergence with an aqueous spray solution derived from the formulation of the technical active ingredient in acetone/water (50:50) solution containing 0.5% Tween 20 (polyoxyethylene sorbitan monolaurate, CAS RN 9005-64-5). The test plants were then grown in a glasshouse under controlled conditions in a glasshouse (at 24/16° C., day/night; 14 hours light; 65% humidity) and watered twice daily. After 13 days for pre and post-emergence, the test was evaluated (100=total damage to plant; 0=no damage to plant).

[6] = tested on: Winter Wheat variety 'Hereward'; assay: Crop damage to winter wheat, post-emergence spray; conditions: 250 g/ha, no safener, evaluated after 13 days, 100=total damage to plant, 0=no damage
Method: Seeds of the Winter Wheat variety ‘Hereward’ were sown in standard soil in pots. After 8 days cultivation under controlled conditions in a glasshouse (at 24/16° C., day/night; 14 hours light; 65% humidity), the plants were sprayed post-emergence with an aqueous spray solution derived from the formulation of the technical active ingredient in acetone/water (50:50) solution containing 0.5% Tween 20 (polyoxyethylene sorbitan monolaurate, CAS RN 9005-64-5). The test plants were then grown in a glasshouse under controlled conditions in a glasshouse (at 24/16° C., day/night; 14 hours light; 65% humidity) and watered twice daily. After 13 days for pre and post-emergence, the test was evaluated (100=total damage to plant; 0=no damage to plant).

[7] = tested on: Echinochloa crus-galli (ECHCG); assay: Post-emergence herbicidal activity, glasshouse pot test; conditions: 312 h, evaluated after 13 days, 100=total damage to plant, 0=no damage
Method: as §1, with “Post-Emergence” for “Pre-Emergence”

Lolium perenne (LOLPE) [8] = assay: as above; conditions: 312 h, evaluated after 13 days, 100=total damage to plant, 0=no damage
Method: as §1, with “Post-Emergence” for “Pre-Emergence”

[9] = tested on: Alopecurus myosuroides (ALOMY); assay: as above; conditions: 312 h, evaluated after 13 days, 100=total damage to plant, 0=no damage
Method: as §1, with “Post-Emergence” for “Pre-Emergence”

Avena fatua (AVEFA) [10] = assay: as above; conditions: 312 h, evaluated after 13 days, 100=total damage to plant, 0=no damage
Method: as §1, with “Post-Emergence” for “Pre-Emergence”

Structure (SMILES)	Pre-Emergence Activity ECHCG (damage to plant) [1]	Pre-Emergence Activity LOLPE (damage to plant) (Lolium perenne (LOLPE) [2])	Pre-Emergence Activity ALOMY (damage to plant) [3]	Pre-Emergence Activity AVEFA (damage to plant) (Avena fatua (AVEFA) [4])	Winter Wheat (Hereward) + cloquintocet mexyl (damage to plant) [5]	Winter Wheat (Hereward) (damage to plant) [6]	pest or weed control at 250 g/ha [7]	pest or weed control at 250 g/ha (Lolium perenne (LOLPE) [8])	pest or weed control at 250 g/ha [9]	pest or weed control at 250 g/ha (Avena fatua (AVEFA) [10])
Cc1cnc(-c2ccc(Cl)cc2)nc1C1C(=O)C/C(=C\C2CCOCC2)C1=O (centres unmarked) [Compound A9]	100	70	10	50	0	50	100%	40%	20%	60%
Cc1cc(-c2ccc(Cl)cc2)nn1C1C(=O)C/C(=C/c2ccc(F)cn2)C1=O (centres unmarked) [Compound A22]	70	60	40	20	10	60	90%	50%	70%	60%
Cc1cc(-c2ccc(Cl)cc2)nn1C1C(=O)C/C(=C\C2CCOCC2)C1=O (centres unmarked) [Compound A23]	100	100	90	90	60	80	100%	100%	90%	100%
Cc1cc(-c2ccc(Cl)cc2)nn1C1C(=O)CC(Cc2ccc(F)cn2)C1=O (centres unmarked) [Compound A20]	100	70	40	20	70	70	100%	90%	80%	90%
Cc1cc(-c2ccc(Cl)cc2)nn1C1C(=O)CC(CC2CCOCC2)C1=O (centres unmarked) [Compound A25]	100	90	70	70	40	80	100%	100%	100%	100%
Cc1sc(-c2ccc(Cl)cc2)nc1C1C(=O)C/C(=C\C2CCOCC2)C1=O (centres unmarked) [Compound A24]	100	100	60	60	0	70	100%	90%	100%	90%
Cc1sc(-c2ccc(Cl)cc2)nc1C1C(=O)CC(CC2CCOCC2)C1=O (centres unmarked) [Compound A18]	100	100	80	90	90	80	100%	100%	100%	100%
Cc1sc(-c2ccc(Cl)cc2)nc1C1C(=O)CC(Cc2ccc(F)cn2)C1=O (centres unmarked) [Compound A12]	100	100	100	90	80	70	100%	100%	100%	90%
